Assay results reported in ChEMBL document CHEMBL4145521, “Regioselective synthesis of 3,4-diaryl-5-unsubstituted isoxazoles, analogues of natural cytostatic combretastatin A4” (Eur J Med Chem, 2018).

Assays:
Format in all cases: functional
NCI-H522 = test: Cytotoxicity against human NCI-H522 cells assessed as cell growth at 100 uM incubated for 48 hrs by sulforhodamine B assay relative to control; conditions: NCI-H522, 48 h, read-out: Activity
786-0 [1] = test: Cytotoxicity against human 786-0 cells assessed as cell growth at 0.01 uM incubated for 48 hrs by sulforhodamine B assay relative to control; conditions: 786-0, 48 h, read-out: Activity
SNB-19 [2] = test: Cytotoxicity against human SNB19 cells assessed as cell growth at 100 uM incubated for 48 hrs by sulforhodamine B assay relative to control; conditions: SNB-19, 48 h, read-out: Activity
DU-145 [3] = test: Cytotoxicity against human DU145 cells assessed as cell growth at 0.1 uM incubated for 48 hrs by sulforhodamine B assay relative to control; conditions: DU-145, 48 h, read-out: Activity
LOX IMVI = test: Cytotoxicity against human LOXIMVI cells assessed as cell growth at 1 uM incubated for 48 hrs by sulforhodamine B assay relative to control; conditions: read-out: Activity
RXF 393 [4] = test: Cytotoxicity against human RXF393 cells incubated for 48 hrs by sulforhodamine B assay; conditions: RXF 393, 48 h
SK-MEL-5 = test: Cytotoxicity against human SK-MEL-5 cells incubated for 48 hrs by sulforhodamine B assay; conditions: SK-MEL-5, 48 h
HOP-62 = test: Cytotoxicity against human HOP62 cells assessed as cell growth at 100 uM incubated for 48 hrs by sulforhodamine B assay relative to control; conditions: HOP-62, 48 h, read-out: Activity
IGROV-1 = test: Cytotoxicity against human IGROV1 cells incubated for 48 hrs by sulforhodamine B assay; conditions: IGROV-1, 48 h
EKVX [5] = test: Cytotoxicity against human EKVX cells assessed as cell growth at 0.01 uM incubated for 48 hrs by sulforhodamine B assay relative to control; conditions: read-out: Activity
786-0 [6] = test: Cytotoxicity against human 786-0 cells assessed as cell growth at 10 uM incubated for 48 hrs by sulforhodamine B assay relative to control; conditions: 786-0, 48 h, read-out: Activity
PC-3 = test: Cytotoxicity against human PC3 cells assessed as cell growth at 1 uM incubated for 48 hrs by sulforhodamine B assay relative to control; conditions: PC-3, 48 h, read-out: Activity
SNB-19 [7] = test: Cytotoxicity against human SNB19 cells assessed as cell growth at 0.1 uM incubated for 48 hrs by sulforhodamine B assay relative to control; conditions: SNB-19, 48 h, read-out: Activity
CCRF-CEM = test: Cytotoxicity against human CCRF-CEM cells assessed as cell growth at 100 uM incubated for 48 hrs by sulforhodamine B assay relative to control; conditions: read-out: Activity
RXF 393 [8] = test: Cytotoxicity against human RXF393 cells assessed as cell growth at 10 uM incubated for 48 hrs by sulforhodamine B assay relative to control; conditions: RXF 393, 48 h, read-out: Activity
DU-145 [9] = test: Cytotoxicity against human DU145 cells assessed as cell growth at 100 uM incubated for 48 hrs by sulforhodamine B assay relative to control; conditions: DU-145, 48 h, read-out: Activity
SN12C [10] = test: Cytotoxicity against human SN12C cells assessed as cell growth at 0.01 uM incubated for 48 hrs by sulforhodamine B assay relative to control; conditions: read-out: Activity
OVCAR-3 = test: Cytotoxicity against human OVCAR3 cells assessed as cell growth at 0.01 uM incubated for 48 hrs by sulforhodamine B assay relative to control; conditions: OVCAR-3, 48 h, read-out: Activity
HCT-15 = test: Cytotoxicity against human HCT15 cells assessed as cell growth at 0.1 uM incubated for 48 hrs by sulforhodamine B assay relative to control; conditions: HCT-15, 48 h, read-out: Activity
NCI-H322M = test: Cytotoxicity against human NCI-H322M cells assessed as cell growth at 0.01 uM incubated for 48 hrs by sulforhodamine B assay relative to control; conditions: read-out: Activity
CAKI-1 = test: Cytotoxicity against human Caki1 cells assessed as cell growth at 1 uM incubated for 48 hrs by sulforhodamine B assay relative to control; conditions: CAKI-1, 48 h, read-out: Activity
SN12C [11] = test: Cytotoxicity against human SN12C cells assessed as cell growth at 10 uM incubated for 48 hrs by sulforhodamine B assay relative to control; conditions: read-out: Activity
COLO 205 = test: Cytotoxicity against human COLO205 cells assessed as cell growth at 100 uM incubated for 48 hrs by sulforhodamine B assay relative to control; conditions: COLO 205, 48 h, read-out: Activity
EKVX [12] = test: Cytotoxicity against human EKVX cells assessed as cell growth at 0.1 uM incubated for 48 hrs by sulforhodamine B assay relative to control; conditions: read-out: Activity
UO-31 = test: Cytotoxicity against human UO31 cells assessed as cell growth at 10 uM incubated for 48 hrs by sulforhodamine B assay relative to control; conditions: UO-31, 48 h, read-out: Activity
SK-MEL-28 [13] = test: Cytotoxicity against human SK-MEL-28 cells assessed as cell growth at 1 uM incubated for 48 hrs by sulforhodamine B assay relative to control; conditions: SK-MEL-28, 48 h, read-out: Activity
SW-620 = test: Cytotoxicity against human SW620 cells assessed as cell growth at 0.1 uM incubated for 48 hrs by sulforhodamine B assay relative to control; conditions: SW-620, 48 h, read-out: Activity
SK-MEL-28 [14] = test: Cytotoxicity against human SK-MEL-28 cells assessed as cell growth at 0.1 uM incubated for 48 hrs by sulforhodamine B assay relative to control; conditions: SK-MEL-28, 48 h, read-out: Activity
786-0 [15] = test: Cytotoxicity against human 786-0 cells assessed as cell growth at 0.1 uM incubated for 48 hrs by sulforhodamine B assay relative to control; conditions: 786-0, 48 h, read-out: Activity
SK-MEL-28 [16] = test: Cytotoxicity against human SK-MEL-28 cells assessed as cell growth at 0.01 uM incubated for 48 hrs by sulforhodamine B assay relative to control; conditions: SK-MEL-28, 48 h, read-out: Activity
A549 = test: Cytotoxicity against human A549/ATCC cells assessed as cell growth at 0.01 uM incubated for 48 hrs by sulforhodamine B assay relative to control; conditions: A549, 48 h, read-out: Activity
SK-MEL-28 [17] = test: Cytotoxicity against human SK-MEL-28 cells assessed as cell growth at 100 uM incubated for 48 hrs by sulforhodamine B assay relative to control; conditions: SK-MEL-28, 48 h, read-out: Activity
OVCAR-5 = test: Cytotoxicity against human OVCAR5 cells assessed as cell growth at 100 uM incubated for 48 hrs by sulforhodamine B assay relative to control; conditions: OVCAR-5, 48 h, read-out: Activity
MOLT-4 = test: Cytotoxicity against human MOLT4 cells incubated for 48 hrs by sulforhodamine B assay; conditions: MOLT-4, 48 h
[18] = read-out: LC50 (the source's name)
[19] = read-out: pLC50 (the source's name) (converted)

## COc1ccc(-c2nocc2-c2cc(OC)c(OC)c(OC)c2)cc1
NCI-H522
  growth at 100 µM: -48%
786-0 [1]
  growth at 0.01 µM: 85%
SNB-19 [2]
  growth at 100 µM: 8%
DU-145 [3]
  growth at 0.1 µM: 71%
LOX IMVI
  growth at 1 µM: 43%
RXF 393 [4]; read-out: GI50
  GI50: 0.243 µM
RXF 393 [4]; [18]
  CC50: > 100 µM
RXF 393 [4]; read-out: pGI50 (converted)
  GI50: 0.245 µM
RXF 393 [4]; [19]
  CC50: > 100 µM
SK-MEL-5; read-out: GI50
  GI50: 0.0715 µM
SK-MEL-5; read-out: LC50
  LC50 (concentration killing 50% of cells): 27.7 µM
SK-MEL-5; read-out: TGI
  TGI: 5.25 µM
SK-MEL-5; read-out: pGI50 (converted)
  GI50: 0.0708 µM
SK-MEL-5; read-out: pLC50 (converted)
  LC50 (concentration killing 50% of cells): 27.5 µM
SK-MEL-5; read-out: pTGI
  TGI: 5.25 µM
HOP-62
  growth at 100 µM: 10%
IGROV-1; read-out: GI50
  GI50: 0.346 µM
IGROV-1; [18]
  CC50: > 100 µM
IGROV-1; read-out: TGI
  TGI: > 100 µM
IGROV-1; read-out: pGI50 (converted)
  GI50: 0.347 µM
IGROV-1; [19]
  CC50: > 100 µM
IGROV-1; read-out: pTGI
  TGI: > 100 µM
EKVX [5]
  growth at 0.01 µM: 83%
786-0 [6]
  growth at 10 µM: 24%
PC-3
  growth at 1 µM: 18%
SNB-19 [7]
  growth at 0.1 µM: 69%
CCRF-CEM
  growth at 100 µM: 4%
RXF 393 [8]
  growth at 10 µM: 1%
DU-145 [9]
  growth at 100 µM: 7%
SN12C [10]
  growth at 0.01 µM: 107%
OVCAR-3
  growth at 0.01 µM: 100%
HCT-15
  growth at 0.1 µM: 29%
NCI-H322M
  growth at 0.01 µM: 95%
CAKI-1
  growth at 1 µM: 47%
SN12C [11]
  growth at 10 µM: 34%
COLO 205
  growth at 100 µM: -40%
EKVX [12]
  growth at 0.1 µM: 49%
UO-31
  growth at 10 µM: 23%
SK-MEL-28 [13]
  growth at 1 µM: 58%
SW-620
  growth at 0.1 µM: 32%
SK-MEL-28 [14]
  growth at 0.1 µM: 61%
786-0 [15]
  growth at 0.1 µM: 54%
SK-MEL-28 [16]
  growth at 0.01 µM: 94%
A549
  growth at 0.01 µM: 100%
SK-MEL-28 [17]
  growth at 100 µM: -5%
OVCAR-5
  growth at 100 µM: 21%
MOLT-4; read-out: GI50
  GI50: 0.708 µM
MOLT-4; [18]
  CC50: > 100 µM
MOLT-4; read-out: TGI
  TGI: > 100 µM
MOLT-4; read-out: pGI50 (converted)
  GI50: 0.708 µM
MOLT-4; [19]
  CC50: > 100 µM
MOLT-4; read-out: pTGI
  TGI: > 100 µM
